According to US20070128217A1 (priority 2003, published 2007):

Experiments:
[1] = test system: recombinant human anti-SARS-CoV antibody 03-018; format: binding; design: Binding of antibody 03-018 to linear peptides of the N protein of SARS-CoV Urbani / Binding of antibody 03-018 to looped/cyclic peptides of the N protein of SARS-CoV Urbani: unit not given here
[2] = test system: rabbit serum obtained by immunizing a rabbit with the SARS-CoV strain Frankfurt 1; format: binding; design: Binding of a rabbit serum to linear peptides / Binding of a rabbit serum to looped peptides / Rabbit serum linear peptides / Rabbit serum looped peptides / Binding of a rabbit serum to linear peptides of protein N of SARS-CoV Urbani (Rabbit serum linear peptides) / Binding of a rabbit serum to looped/cyclic peptides of protein N of SARS-CoV Urbani (Rabbit serum looped peptides): unit not given here
[3] = test system: control sera (pooled serum of ten healthy LUMC hospital workers; commercial negative donor pooled serum from the Dutch bloodbank); format: binding, human; design: Binding of Control serum LUMC to linear peptides / Binding of Control serum Blood-bank to linear peptides / Binding of Control serum LUMC to looped peptides / Binding of Control Serum Blood-Bank to Looped peptides / Binding of Control serum LUMC to linear peptides of the protein M of SARS-CoV Urbani / Binding of Control serum Blood-bank to linear peptides of the protein M of SARS-CoV Urbani / Binding of Control serum LUMC to looped peptides of the protein M of SARS-CoV Urbani / Binding of Control Serum Blood-Bank to Looped peptides of the protein M of SARS-CoV Urbani: unit not given here
[4] = test system: antibodies in sera from SARS patients (sera 1a, 1b, 2, 6, 37, 62, London, SARS-yellow, SARS-green); format: binding, human; design: Binding of serum 6 to linear peptides of protein X1 of SARS-CoV Urbani / Binding of serum 37 to linear peptides of protein X1 of SARS-CoV Urbani / Binding of serum 6 to looped/cyclic peptide (PEPSCAN-ELISA) / Binding of serum 37 to looped/cyclic peptide (PEPSCAN-ELISA) / Binding of serum 37 to looped/cyclic peptides of protein X1 of SARS-CoV Urbani / Binding of serum 6 to linear peptides of protein X2 / Binding of serum 37 to linear peptides of protein X2 / Binding of serum 37 to looped/cyclic peptides of protein X2 of SARS-CoV Urbani / Binding of serum 6 to linear peptides of protein M of SARS-CoV Urbani / Binding of serum 37 to linear peptides of protein M of SARS-CoV Urbani / Binding of serum 6 to looped/cyclic peptides of protein M of SARS-CoV Urbani / Binding of serum 37 to looped/cyclic peptides of protein M of SARS-CoV Urbani / Binding of serum 6 to linear peptides of protein X3 of SARS-CoV Urbani / Binding of serum 37 to linear peptides of protein X3 of SARS-CoV Urbani / Binding of serum 37 to looped/cyclic peptides of protein X3 of SARS-CoV Urbani / Binding of serum 6 to linear peptides of protein X4 of SARS-CoV Urbani / Binding of serum 37 to linear peptides of protein X4 of SARS-CoV Urbani / Binding of serum 37 to looped/cyclic peptides of protein X4 of SARS-CoV Urbani / Binding of serum 6 to linear peptides of protein X5 of SARS-CoV Urbani / Binding of serum 37 to linear peptides of protein X5 of SARS-CoV Urbani / Binding of serum 37 to looped/cyclic peptides of protein X5 of SARS-CoV Urbani / Binding of serum 6 to linear peptides of protein N of SARS-CoV Urbani / Binding of serum 37 to linear peptides of protein N of SARS-CoV Urbani / Binding of serum 6 to linear peptide (PEPSCAN-ELISA) / Binding of serum 1a to looped/cyclic peptides of protein N of SARS-CoV Urbani / Binding of serum 1b to looped/cyclic peptides of protein N of SARS-CoV Urbani / Binding of serum 2 to looped/cyclic peptides of protein N of SARS-CoV Urbani / Binding of serum 6 to looped/cyclic peptides of protein N of SARS-CoV Urbani / Binding of serum 37 to looped/cyclic peptides of protein N of SARS-CoV Urbani / Binding of serum 62 to looped/cyclic peptides of protein N of SARS-CoV Urbani / Binding of serum London to looped/cyclic peptides of protein N of SARS-CoV Urbani / Binding of serum SARS-green to looped/cyclic peptides of protein N of SARS-CoV Urbani: unit not given here

Sequence: EELRFPRGQGVPINT
- Binding of antibody 03-018 to linear peptides of the N protein of SARS-CoV Urbani [1]: 0.1
- Binding of antibody 03-018 to looped/cyclic peptides of the N protein of SARS-CoV Urbani [1]: 0.3
- Binding of a rabbit serum to linear peptides of protein N of SARS-CoV Urbani (Rabbit serum linear peptides) [2]: 0.1
- Binding of a rabbit serum to looped/cyclic peptides of protein N of SARS-CoV Urbani (Rabbit serum looped peptides) [2]: 0.6
- Binding of Control Serum Blood-Bank to Looped peptides [3]: 1.3
- Binding of Control serum Blood-bank to linear peptides [3]: 0.8
- Binding of Control serum LUMC to linear peptides [3]: 0.8
- Binding of Control serum LUMC to looped peptides [3]: 1.1
- Binding of serum 1a to linear peptides of protein N of SARS-CoV Urbani [4]: 0.2
- Binding of serum 1a to looped/cyclic peptides of protein N of SARS-CoV Urbani [4]: 0.6
- Binding of serum 1b to linear peptides of protein N of SARS-CoV Urbani [4]: 0.1
- Binding of serum 1b to looped/cyclic peptides of protein N of SARS-CoV Urbani [4]: 0.4
- Binding of serum 2 to linear peptides of protein N of SARS-CoV Urbani [4]: 0.3
- Binding of serum 2 to looped/cyclic peptides of protein N of SARS-CoV Urbani [4]: 0.8
- Binding of serum 6 to linear peptides of protein N of SARS-CoV Urbani [4]: 0.2
- Binding of serum 6 to looped/cyclic peptides of protein N of SARS-CoV Urbani [4]: 0.5
- Binding of serum 37 to linear peptides of protein N of SARS-CoV Urbani [4]: 0.7
- Binding of serum 37 to looped/cyclic peptides of protein N of SARS-CoV Urbani [4]: 1.0
- Binding of serum 62 to linear peptides of protein N of SARS-CoV Urbani [4]: 0.7
- Binding of serum 62 to looped/cyclic peptides of protein N of SARS-CoV Urbani [4]: 1.2
- Binding of serum London to linear peptides of protein N of SARS-CoV Urbani [4]: 0.5
- Binding of serum London to looped/cyclic peptides of protein N of SARS-CoV Urbani [4]: 0.7
- Binding of serum SARS-green to linear peptides of protein N of SARS-CoV Urbani [4]: 0.4
- Binding of serum SARS-green to looped/cyclic peptides of protein N of SARS-CoV Urbani [4]: 0.9
- Binding of serum SARS-yellow to linear peptides of protein N of SARS-CoV Urbani [4]: 0.6
- Binding of serum SARS-yellow to looped/cyclic peptides of protein N of SARS-CoV Urbani [4]: 0.8

Sequence: ELRFPRGQGVPINTN
- Binding of antibody 03-018 to linear peptides of the N protein of SARS-CoV Urbani [1]: 0.1
- Binding of antibody 03-018 to looped/cyclic peptides of the N protein of SARS-CoV Urbani [1]: 0.2
- Binding of a rabbit serum to linear peptides of protein N of SARS-CoV Urbani (Rabbit serum linear peptides) [2]: 0.1
- Binding of a rabbit serum to looped/cyclic peptides of protein N of SARS-CoV Urbani (Rabbit serum looped peptides) [2]: 0.4
- Binding of Control Serum Blood-Bank to Looped peptides [3]: 0.7
- Binding of Control serum Blood-bank to linear peptides [3]: 0.6
- Binding of Control serum LUMC to linear peptides [3]: 0.8
- Binding of Control serum LUMC to looped peptides [3]: 0.7
- Binding of serum 1a to linear peptides of protein N of SARS-CoV Urbani [4]: 0.2
- Binding of serum 1a to looped/cyclic peptides of protein N of SARS-CoV Urbani [4]: 0.4
- Binding of serum 1b to linear peptides of protein N of SARS-CoV Urbani [4]: 0.1
- Binding of serum 1b to looped/cyclic peptides of protein N of SARS-CoV Urbani [4]: 0.3
- Binding of serum 2 to linear peptides of protein N of SARS-CoV Urbani [4]: 0.3
- Binding of serum 2 to looped/cyclic peptides of protein N of SARS-CoV Urbani [4]: 0.5
- Binding of serum 6 to linear peptides of protein N of SARS-CoV Urbani [4]: 0.1
- Binding of serum 6 to looped/cyclic peptides of protein N of SARS-CoV Urbani [4]: 0.3
- Binding of serum 37 to linear peptides of protein N of SARS-CoV Urbani [4]: 0.7
- Binding of serum 37 to looped/cyclic peptides of protein N of SARS-CoV Urbani [4]: 0.7
- Binding of serum 62 to linear peptides of protein N of SARS-CoV Urbani [4]: 0.7
- Binding of serum 62 to looped/cyclic peptides of protein N of SARS-CoV Urbani [4]: 0.6
- Binding of serum London to linear peptides of protein N of SARS-CoV Urbani [4]: 0.5
- Binding of serum London to looped/cyclic peptides of protein N of SARS-CoV Urbani [4]: 0.5
- Binding of serum SARS-green to linear peptides of protein N of SARS-CoV Urbani [4]: 0.4
- Binding of serum SARS-green to looped/cyclic peptides of protein N of SARS-CoV Urbani [4]: 0.7
- Binding of serum SARS-yellow to linear peptides of protein N of SARS-CoV Urbani [4]: 0.6
- Binding of serum SARS-yellow to looped/cyclic peptides of protein N of SARS-CoV Urbani [4]: 0.4

Sequence: ELSPRWYFYYLGTGP
- Binding of antibody 03-018 to linear peptides of the N protein of SARS-CoV Urbani [1]: 0.1
- Binding of antibody 03-018 to looped/cyclic peptides of the N protein of SARS-CoV Urbani [1]: 0.2
- Binding of a rabbit serum to linear peptides of protein N of SARS-CoV Urbani (Rabbit serum linear peptides) [2]: 0.1
- Binding of a rabbit serum to looped/cyclic peptides of protein N of SARS-CoV Urbani (Rabbit serum looped peptides) [2]: 0.4
- Binding of Control Serum Blood-Bank to Looped peptides [3]: 0.7
- Binding of Control serum Blood-bank to linear peptides [3]: 0.6
- Binding of Control serum LUMC to linear peptides [3]: 0.5
- Binding of Control serum LUMC to looped peptides [3]: 0.5
- Binding of serum 1a to linear peptides of protein N of SARS-CoV Urbani [4]: 0.2
- Binding of serum 1a to looped/cyclic peptides of protein N of SARS-CoV Urbani [4]: 0.3
- Binding of serum 1b to linear peptides of protein N of SARS-CoV Urbani [4]: 0.2
- Binding of serum 1b to looped/cyclic peptides of protein N of SARS-CoV Urbani [4]: 0.2
- Binding of serum 2 to linear peptides of protein N of SARS-CoV Urbani [4]: 0.3
- Binding of serum 2 to looped/cyclic peptides of protein N of SARS-CoV Urbani [4]: 0.4
- Binding of serum 6 to linear peptides of protein N of SARS-CoV Urbani [4]: 0.2
- Binding of serum 6 to looped/cyclic peptides of protein N of SARS-CoV Urbani [4]: 0.2
- Binding of serum 37 to linear peptides of protein N of SARS-CoV Urbani [4]: 0.8
- Binding of serum 37 to looped/cyclic peptides of protein N of SARS-CoV Urbani [4]: 0.8
- Binding of serum 62 to linear peptides of protein N of SARS-CoV Urbani [4]: 0.7
- Binding of serum 62 to looped/cyclic peptides of protein N of SARS-CoV Urbani [4]: 0.7
- Binding of serum London to linear peptides of protein N of SARS-CoV Urbani [4]: 0.5
- Binding of serum London to looped/cyclic peptides of protein N of SARS-CoV Urbani [4]: 0.4
- Binding of serum SARS-green to linear peptides of protein N of SARS-CoV Urbani [4]: 0.4
- Binding of serum SARS-green to looped/cyclic peptides of protein N of SARS-CoV Urbani [4]: 0.3
- Binding of serum SARS-yellow to linear peptides of protein N of SARS-CoV Urbani [4]: 0.7
- Binding of serum SARS-yellow to looped/cyclic peptides of protein N of SARS-CoV Urbani [4]: 0.5
